Measurements as given in patent US20240226115A1, “AXL INHIBITOR COMPOUNDS” (ARCUS BIOSCIENCES, INC., priority 2021, published 2024).

Target: T1, Axl (Homo sapiens, UniProt P30530)
T1 sequence (P30530 26-894): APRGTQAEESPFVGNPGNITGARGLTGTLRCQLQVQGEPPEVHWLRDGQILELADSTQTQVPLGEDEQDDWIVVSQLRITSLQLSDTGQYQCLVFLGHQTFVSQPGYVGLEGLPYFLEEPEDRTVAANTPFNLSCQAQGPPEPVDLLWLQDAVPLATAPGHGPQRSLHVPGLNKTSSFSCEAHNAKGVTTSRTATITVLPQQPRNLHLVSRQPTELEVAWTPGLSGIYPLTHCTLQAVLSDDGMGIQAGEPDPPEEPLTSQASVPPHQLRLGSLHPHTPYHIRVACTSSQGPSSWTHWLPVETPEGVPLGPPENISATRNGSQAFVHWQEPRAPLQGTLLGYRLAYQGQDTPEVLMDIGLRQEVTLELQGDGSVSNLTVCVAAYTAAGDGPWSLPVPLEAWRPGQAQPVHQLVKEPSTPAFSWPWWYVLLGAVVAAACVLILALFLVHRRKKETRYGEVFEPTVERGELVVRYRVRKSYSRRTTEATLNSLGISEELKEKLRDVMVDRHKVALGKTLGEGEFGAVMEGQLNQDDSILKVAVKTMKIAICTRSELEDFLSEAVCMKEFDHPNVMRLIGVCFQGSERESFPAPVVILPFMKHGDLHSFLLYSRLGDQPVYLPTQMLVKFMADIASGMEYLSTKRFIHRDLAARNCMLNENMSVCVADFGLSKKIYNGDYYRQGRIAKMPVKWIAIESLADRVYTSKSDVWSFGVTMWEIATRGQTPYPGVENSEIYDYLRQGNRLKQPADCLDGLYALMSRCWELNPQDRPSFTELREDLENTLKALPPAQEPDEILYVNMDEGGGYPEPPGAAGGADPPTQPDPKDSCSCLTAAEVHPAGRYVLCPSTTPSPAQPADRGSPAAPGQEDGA
Experiment: Axl NanoBRET intracellular kinase assay (Cell Binding)
Design: host or cells: HEK-293
Conditions: HEK-293 cells transfected with Axl-NanoLuc fusion vector; displacement of K-5 NanoBRET tracer
Description: Axl NanoBRET™ intracellular kinase assay (Promega, N2540) was performed according to manufacturer's recommendation. In brief, HEK-293 cells are transiently transfected with Axl-NanoLuc fusion vector (Promega, NV1071), utilizing Fugene HD transfection reagent (Promega, E2311) a day before experiment following manufacturer's recommendation.
The day of the assay, the cells were collected and resuspended in Opti-MEM media (ThermoFisher, 31985070) at 2e5 cells/mL concentration. Testing compounds were serial diluted and dispensed into a white 384 well polystyrene plate at 200 nL in 100% DMSO. 40 μL of resuspended cells is then added per well for a final condition of 8K cells/well with 0.5% DMSO. After one-hour compound pre-incubation at 37° C. and 5% CO2, cells were further incubated with 0.35 μM K-5 NanoBRET tracer for two-hours at 37° C. and 5% CO2. […] of 3× substrate plus Inhibitor solution was prepared according to kits manual and added to the cells followed by a 30 second pulse centrifugation spin. The plate was then immediately read utilizing an Envision (Perkin Elmer) plate reader. The BRET signal is measured by taking the ratio of the emissions reading at 610 nm and 450 nm. Compound binding is based on the decrease BRET signal caused by the displacement of the K-5 tracer. […] IC50 value of compounds was determined by 4-parameter non-linear regression fitting of percent activity in GraphPad Prism software.

SMILES | IC50 [nM]
O=C1NCCOc2cc(-c3n[nH]c4ncc(-c5ccc6c(c5)CCN(C5COC5)CC6)cc34)ccc21 [Example 11, 8-(5-(3-(Oxetan-3-yl)-2,3,4,5-tetrahydro-1H-benzo[d]azepin-7-yl)-1H-pyrazolo[3,4-b]pyridin-3-yl)-3,4-dihydrobenzo[f][1,4]oxazepin-5(2H)-one] | 100 to 1000
O=C1NCCOc2cc(-c3n[nH]c4ncc(-c5ccc6c(c5)CCC(NC5CCCC5)CC6)cc34)ccc21 (centres unmarked) [Example 42, 8-{5-[7-(Cyclopentylamino)-6,7,8,9-tetrahydro-5H-benzo[7]annulen-2-yl]-1H-pyrazolo[3,4-b]pyridin-3-yl}-2,3,4,5-tetrahydro-1,4-benzoxazepin-5-one] | < 100
C[C@@H]1CCCN1C1CCc2ccc(-c3cnc4[nH]nc(-c5ccc6c(c5)C(=O)NC6(C)C)c4c3)cc2CC1 (stereo partly drawn) [Example 38, 3,3-Dimethyl-6-(5-{7-[(2R)-2-methylpyrrolidin-1-yl]-6,7,8,9-tetrahydro-5H-benzo[7]annulen-2-yl}-1H-pyrazolo[3,4-b]pyridin-3-yl)-2,3-dihydro-1H-isoindol-1-one] | < 100
CC1(C)NS(=O)(=O)c2cc(-c3n[nH]c4ncc(-c5ccc6c(c5)CCC(N5CCC[C@@H]5CO)CC6)cc34)ccc21 (stereo partly drawn) [Example 34, 6-(5-{7-[(2R)-2-(Hydroxymethyl)pyrrolidin-1-yl]-6,7,8,9-tetrahydro-5H-benzo[7]annulen-2-yl}-1H-pyrazolo[3,4-b]pyridin-3-yl)-3,3-dimethyl-2,3-dihydro-1λ^6,2-benzothiazole-1,1-dione] | < 100
C[C@@H]1CCCN1C1CCc2ccc(-c3cnc4[nH]nc(-c5cc6c(cc5F)C(=O)NCCO6)c4c3)cc2CC1 (stereo partly drawn) [Example 61, 7-Fluoro-8-(5-{7-[(2R)-2-methylpyrrolidin-1-yl]-6,7,8,9-tetrahydro-5H-benzo[7]annulen-2-yl}-1H-pyrazolo[3,4-b]pyridin-3-yl)-2,3,4,5-tetrahydro-1,4-benzoxazepin-5-one] | < 100
O=C1NCCOc2cc(-c3n[nH]c4ncc(-c5ccc6c(c5)CCC(N5CC[C@@H](O)C5)CC6)cc34)ccc21 (stereo partly drawn) [Example 51, 8-(5-(7-((R)-3-Hydroxypyrrolidin-1-yl)-6,7,8,9-tetrahydro-5H-benzo[7]annulen-2-yl)-1H-pyrazolo[3,4-b]pyridin-3-yl)-3,4-dihydrobenzo[f][1,4]oxazepin-5(2H)-one] | 100 to 1000
C[C@@H]1CCCN1C1(C)CCc2ccc(-c3cnc4[nH]nc(-c5ccc6c(c5)OCCNC6=O)c4c3)cc2CC1 (stereo partly drawn) [Example 23, 8-(5-{7-Methyl-7-[(2R)-2-methylpyrrolidin-1-yl]-6,7,8,9-tetrahydro-5H-benzo[7]annulen-2-yl}-1H-pyrazolo[3,4-b]pyridin-3-yl)-2,3,4,5-tetrahydro-1,4-benzoxazepin-5-one] | < 100
O=C1NCCOc2cc(-c3n[nH]c4ncc(-c5ccc6c(c5)CCC(N5CCCC5)C6)cc34)ccc21 (centres unmarked) [Example 2, 8-{5-[6-(Pyrrolidin-1-yl)-5,6,7,8-tetrahydronaphthalen-2-yl]-1H-pyrazolo[3,4-b]pyridin-3-yl}-2,3,4,5-tetrahydro-1,4-benzoxazepin-5-one] | < 100
C[C@@H]1CCCN1C1CCc2ccc(-c3cnc4[nH]nc(-c5ccc6c(c5)OCCC6(C)O)c4c3)cc2CC1 (stereo partly drawn) [Example 29, 4-Methyl-7-(5-{7-[(2R)-2-Methylpyrrolidin-1-yl]-6,7,8,9-tetrahydro-5H-benzo[7]annulen-2-yl}-1H-pyrazolo[3,4-b]pyridin-3-yl)-3,4-dihydro-2H-1-benzopyran-4-ol] | < 100
O=C1NCCOc2cc(-c3n[nH]c4ncc(-c5ccc6c(c5)CCN(C5CCCC5)C6)cc34)ccc21 [Example 9, 8-(5-(2-Cyclopentyl-1,2,3,4-tetrahydroisoquinolin-6-yl)-1H-pyrazolo[3,4-b]pyridin-3-yl)-3,4-dihydrobenzo[f][1,4]oxazepin-5(2H)-one] | < 100
O=C1NCCOc2cc(-c3n[nH]c4ncc(-c5ccc6c(c5)CC[C@H](N5CCCC5)CC6)cc34)ccc21 (single isomer, unassigned) [Example 56] | < 100
C[C@@H]1CCCN1C1CCc2ccc(-c3cnc4[nH]nc(-c5cc(F)c6c(c5)OCCNC6=O)c4c3)cc2CC1 (stereo partly drawn) [Example 6, 6-Fluoro-8-(5-{7-[(2R)-2-methylpyrrolidin-1-yl]-6,7,8,9-tetrahydro-5H-benzo[7]annulen-2-yl}-1H-pyrazolo[3,4-b]pyridin-3-yl)-2,3,4,5-tetrahydro-1,4-benzoxazepin-5-one] | < 100
CC1(N2CCCC2)CCc2ccc(-c3cnc4[nH]nc(-c5ccc6c(c5)OCCNC6=O)c4c3)cc2CC1 (centres unmarked) [Example 22, 8-{5-[7-Methyl-7-(pyrrolidin-1-yl)-6,7,8,9-tetrahydro-5H-benzo[7]annulen-2-yl]-1H-pyrazolo[3,4-b]pyridin-3-yl}-2,3,4,5-tetrahydro-1,4-benzoxazepin-5-one] | < 100
O=C1NCCOc2cc(-c3n[nH]c4ncc(-c5ccc6c(c5)CCC(N[C@@H]5CCOC5)C6)cc34)ccc21 (stereo partly drawn) [Example 5, 8-[5-(6-{[(3R)—Oxolan-3-yl]amino}-5,6,7,8-tetrahydronaphthalen-2-yl)-1H-pyrazolo[3,4-b]pyridin-3-yl]-2,3,4,5-tetrahydro-1,4-benzoxazepin-5-one] | < 100
O=C1NCCOc2cc(-c3n[nH]c4ncc(-c5ccc6c(c5)CCC(N5CCOCC5)CC6)cc34)ccc21 (centres unmarked) [Example 47, 8-{5-[7-(Morpholin-4-yl)-6,7,8,9-tetrahydro-5H-benzo[7]annulen-2-yl]-1H-pyrazolo[3,4-b]pyridin-3-yl}-2,3,4,5-tetrahydro-1,4-benzoxazepin-5-one] | < 100
O=C1NCCOc2cc(-c3n[nH]c4ncc(-c5ccc6c(c5)CCNC6)cc34)ccc21 [Example 54, 8-(5-(1,2,3,4-Tetrahydroisoquinolin-6-yl)-1H-pyrazolo[3,4-b]pyridin-3-yl)-3,4-dihydrobenzo[f][1,4]oxazepin-5(2H)-one] | 100 to 1000
C[C@@H]1CCCN1C1CCc2ccc(-c3cnc4[nH]nc(-c5ccc6c(c5)OCCNS6(=O)=O)c4c3)cc2CC1 (stereo partly drawn) [Example 66, 7-(5-{7-[(2R)-2-Methylpyrrolidin-1-yl]-6,7,8,9-tetrahydro-5H-benzo[7]annulen-2-yl}-1H-pyrazolo[3,4-b]pyridin-3-yl)-3,4-dihydro-2H-5,12,2-benzoxathiazepine-1,1-dione] | < 100
C[C@@H]1CCCN1C1CCc2cc(-c3cnc4[nH]nc(-c5ccc6c(c5)OCCNC6=O)c4c3)cc(Cl)c2CC1 (stereo partly drawn) [Example 65, 8-(5-{4-Chloro-7-[(2R)-2-methylpyrrolidin-1-yl]-6,7,8,9-tetrahydro-5H-benzo[7]annulen-2-yl}-1H-pyrazolo[3,4-b]pyridin-3-yl)-2,3,4,5-tetrahydro-1,4-benzoxazepin-5-one] | < 100
O=C1NCCOc2cc(-c3n[nH]c4ncc(-c5ccc6c(c5)CCN(C5CCCC5)CC6)cc34)ccc21 [Example 7, 8-[5-(3-Cyclopentyl-2,3,4,5-tetrahydro-1H-3-benzazepin-7-yl)-1H-pyrazolo[3,4-b]pyridin-3-yl]-2,3,4,5-tetrahydro-1,4-benzoxazepin-5-one] | < 100
O=C1NCCOc2cc(-c3n[nH]c4ncc(-c5ccc6c(c5)CCC(N[C@H]5CCOC5)CC6)cc34)ccc21 (stereo partly drawn) [Example 45, 8-[5-(7-{[(3S)—Oxolan-3-yl]amino}-6,7,8,9-tetrahydro-5H-benzo[7]annulen-2-yl)-1H-pyrazolo[3,4-b]pyridin-3-yl]-2,3,4,5-tetrahydro-1,4-benzoxazepin-5-one] | < 100
